Assay results as given in PubChem BioAssay (NCI).
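Briefly, cells in 96-well plates were exposed to five compound concentrations for 48 h, and endpoints were estimated by linear interpolation. Abbreviation: GI50, concentration required for 50% inhibition of growth. TGI is the concentration that stops growth completely.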

Key:
Assay in all cases: growth of human tumour cells (NCI), 48 h
M19-MEL melanoma = system: M19-MEL melanoma
UO-31 renal = system: UO-31 renal
IGROV1 ovarian = system: IGROV1 ovarian
NCI-H226 lung = system: NCI-H226 lung
KM20L2 colon = system: KM20L2 colon
OVCAR-3 ovarian = system: OVCAR-3 ovarian
SF-539 CNS = system: SF-539 CNS
OVCAR-4 ovarian = system: OVCAR-4 ovarian
OVCAR-8 ovarian = system: OVCAR-8 ovarian
HCT-116 colon = system: HCT-116 colon
SW-620 colon = system: SW-620 colon
HCC-2998 colon = system: HCC-2998 colon
SR leukemia = system: SR leukemia
HCT-15 colon = system: HCT-15 colon
A549 NSCLC = system: A549 NSCLC
EKVX NSCLC = system: EKVX NSCLC
RXF 393 renal = system: RXF 393 renal
DLD-1 colon = system: DLD-1 colon
UACC-257 melanoma = system: UACC-257 melanoma
COLO 205 colon = system: COLO 205 colon
LOX IMVI melanoma = system: LOX IMVI melanoma
DMS 273 small cell lung = system: DMS 273 small cell lung
TK-10 renal = system: TK-10 renal
SK-MEL-2 melanoma = system: SK-MEL-2 melanoma
XF 498 CNS = system: XF 498 CNS
OVCAR-5 ovarian = system: OVCAR-5 ovarian
UACC-62 melanoma = system: UACC-62 melanoma
CAKI-1 renal = system: CAKI-1 renal
M14 melanoma = system: M14 melanoma
SF-295 CNS = system: SF-295 CNS
U251 CNS = system: U251 CNS
MALME-3M melanoma = system: MALME-3M melanoma
HOP-18 NSCLC = system: HOP-18 NSCLC
SK-MEL-5 melanoma = system: SK-MEL-5 melanoma
NCI-H23 lung = system: NCI-H23 lung
KM12 colon = system: KM12 colon
SNB-78 CNS = system: SNB-78 CNS
SNB-19 CNS = system: SNB-19 CNS
SK-OV-3 ovarian = system: SK-OV-3 ovarian
NCI-H460 lung = system: NCI-H460 lung
SNB-75 CNS = system: SNB-75 CNS
SK-MEL-28 melanoma = system: SK-MEL-28 melanoma
HT29 colon = system: HT29 colon
SN12C renal = system: SN12C renal
LXFL 529 NSCLC = system: LXFL 529 NSCLC
HL-60(TB) leukemia = system: HL-60(TB) leukemia
CCRF-CEM leukemia = system: CCRF-CEM leukemia
SF-268 CNS = system: SF-268 CNS
MOLT-4 leukemia = system: MOLT-4 leukemia
HOP-62 NSCLC = system: HOP-62 NSCLC
786-0 renal = system: 786-0 renal
DMS 114 small cell lung = system: DMS 114 small cell lung
ACHN renal = system: ACHN renal
K-562 leukemia = system: K-562 leukemia
HOP-92 NSCLC = system: HOP-92 NSCLC
NCI-H522 lung = system: NCI-H522 lung
RPMI-8226 leukemia = system: RPMI-8226 leukemia
A498 renal = system: A498 renal

Structure (SMILES): c1cncc([O][Ge]([O]c2cccnc2)([O]c2cccnc2)[O]c2cccnc2)c1
- GI50 (M19-MEL melanoma): > 100 µM
- TGI (M19-MEL melanoma): > 100 µM
- GI50 (UO-31 renal): > 100 µM
- TGI (UO-31 renal): > 100 µM
- GI50 (IGROV1 ovarian): > 100 µM
- TGI (IGROV1 ovarian): > 100 µM
- GI50 (NCI-H226 lung): > 100 µM
- TGI (NCI-H226 lung): > 100 µM
- GI50 (KM20L2 colon): > 100 µM
- TGI (KM20L2 colon): > 100 µM
- GI50 (OVCAR-3 ovarian): > 100 µM
- TGI (OVCAR-3 ovarian): > 100 µM
- GI50 (SF-539 CNS): > 100 µM
- TGI (SF-539 CNS): > 100 µM
- GI50 (OVCAR-4 ovarian): > 100 µM
- TGI (OVCAR-4 ovarian): > 100 µM
- GI50 (OVCAR-8 ovarian): > 100 µM
- TGI (OVCAR-8 ovarian): > 100 µM
- GI50 (HCT-116 colon): > 100 µM
- TGI (HCT-116 colon): > 100 µM
- GI50 (SW-620 colon): > 100 µM
- TGI (SW-620 colon): > 100 µM
- GI50 (HCC-2998 colon): > 100 µM
- TGI (HCC-2998 colon): > 100 µM
- GI50 (SR leukemia): > 100 µM
- TGI (SR leukemia): > 100 µM
- GI50 (HCT-15 colon): > 100 µM
- TGI (HCT-15 colon): > 100 µM
- GI50 (A549 NSCLC): > 100 µM
- TGI (A549 NSCLC): > 100 µM
- GI50 (EKVX NSCLC): > 100 µM
- TGI (EKVX NSCLC): > 100 µM
- GI50 (RXF 393 renal): > 100 µM
- TGI (RXF 393 renal): > 100 µM
- GI50 (DLD-1 colon): > 100 µM
- TGI (DLD-1 colon): > 100 µM
- GI50 (UACC-257 melanoma): > 100 µM
- TGI (UACC-257 melanoma): > 100 µM
- GI50 (COLO 205 colon): > 100 µM
- TGI (COLO 205 colon): > 100 µM
- GI50 (LOX IMVI melanoma): 47.1 µM
- TGI (LOX IMVI melanoma): > 100 µM
- GI50 (DMS 273 small cell lung): > 100 µM
- TGI (DMS 273 small cell lung): > 100 µM
- GI50 (TK-10 renal): > 100 µM
- TGI (TK-10 renal): > 100 µM
- GI50 (SK-MEL-2 melanoma): > 100 µM
- TGI (SK-MEL-2 melanoma): > 100 µM
- GI50 (XF 498 CNS): > 100 µM
- TGI (XF 498 CNS): > 100 µM
- GI50 (OVCAR-5 ovarian): > 100 µM
- TGI (OVCAR-5 ovarian): > 100 µM
- GI50 (UACC-62 melanoma): > 100 µM
- TGI (UACC-62 melanoma): > 100 µM
- GI50 (CAKI-1 renal): > 100 µM
- TGI (CAKI-1 renal): > 100 µM
- GI50 (M14 melanoma): > 100 µM
- TGI (M14 melanoma): > 100 µM
- GI50 (SF-295 CNS): > 100 µM
- TGI (SF-295 CNS): > 100 µM
- GI50 (U251 CNS): > 100 µM
- TGI (U251 CNS): > 100 µM
- GI50 (MALME-3M melanoma): > 100 µM
- TGI (MALME-3M melanoma): > 100 µM
- GI50 (HOP-18 NSCLC): > 100 µM
- TGI (HOP-18 NSCLC): > 100 µM
- GI50 (SK-MEL-5 melanoma): > 100 µM
- TGI (SK-MEL-5 melanoma): > 100 µM
- GI50 (NCI-H23 lung): > 100 µM
- TGI (NCI-H23 lung): > 100 µM
- GI50 (KM12 colon): > 100 µM
- TGI (KM12 colon): > 100 µM
- GI50 (SNB-78 CNS): > 100 µM
- TGI (SNB-78 CNS): > 100 µM
- GI50 (SNB-19 CNS): > 100 µM
- TGI (SNB-19 CNS): > 100 µM
- GI50 (SK-OV-3 ovarian): > 100 µM
- TGI (SK-OV-3 ovarian): > 100 µM
- GI50 (NCI-H460 lung): > 100 µM
- TGI (NCI-H460 lung): > 100 µM
- GI50 (SNB-75 CNS): > 100 µM
- TGI (SNB-75 CNS): > 100 µM
- GI50 (SK-MEL-28 melanoma): > 100 µM
- TGI (SK-MEL-28 melanoma): > 100 µM
- GI50 (HT29 colon): > 100 µM
- TGI (HT29 colon): > 100 µM
- GI50 (SN12C renal): > 100 µM
- TGI (SN12C renal): > 100 µM

Structure (SMILES): O=c1[nH]c2ccc([N+](=O)[O-])cc2nc1/C(=N/Nc1ccccc1)C(O)c1ccco1 (stereo not given)
- TGI (M19-MEL melanoma): > 100 µM
- TGI (UO-31 renal): > 100 µM
- TGI (IGROV1 ovarian): > 100 µM
- TGI (NCI-H226 lung): > 100 µM
- TGI (KM20L2 colon): > 100 µM
- TGI (OVCAR-3 ovarian): > 100 µM
- TGI (SF-539 CNS): > 100 µM
- TGI (LXFL 529 NSCLC): > 100 µM
- TGI (OVCAR-4 ovarian): > 100 µM
- TGI (OVCAR-8 ovarian): > 100 µM
- TGI (HL-60(TB) leukemia): > 100 µM
- TGI (CCRF-CEM leukemia): > 100 µM
- TGI (HCT-116 colon): > 100 µM
- TGI (SW-620 colon): > 100 µM
- TGI (SF-268 CNS): > 100 µM
- TGI (HCC-2998 colon): > 100 µM
- TGI (SR leukemia): > 100 µM
- TGI (HCT-15 colon): 63.5 µM
- TGI (A549 NSCLC): > 100 µM
- TGI (EKVX NSCLC): > 100 µM
- TGI (RXF 393 renal): > 100 µM
- TGI (DLD-1 colon): > 100 µM
- TGI (UACC-257 melanoma): > 100 µM
- TGI (COLO 205 colon): > 100 µM
- TGI (LOX IMVI melanoma): > 100 µM
- TGI (DMS 273 small cell lung): > 100 µM
- TGI (TK-10 renal): > 100 µM
- TGI (SK-MEL-2 melanoma): > 100 µM
- TGI (XF 498 CNS): > 100 µM
- TGI (OVCAR-5 ovarian): > 100 µM
- TGI (UACC-62 melanoma): > 100 µM
- TGI (MOLT-4 leukemia): > 100 µM
- TGI (M14 melanoma): > 100 µM
- TGI (HOP-62 NSCLC): > 100 µM
- TGI (SF-295 CNS): > 100 µM
- TGI (U251 CNS): > 100 µM
- TGI (786-0 renal): > 100 µM
- TGI (MALME-3M melanoma): > 100 µM
- TGI (DMS 114 small cell lung): > 100 µM
- TGI (SK-MEL-5 melanoma): 90.6 µM
- TGI (NCI-H23 lung): > 100 µM
- TGI (KM12 colon): > 100 µM
- TGI (SNB-78 CNS): > 100 µM
- TGI (ACHN renal): > 100 µM
- TGI (SNB-19 CNS): > 100 µM
- TGI (SK-OV-3 ovarian): > 100 µM
- TGI (K-562 leukemia): > 100 µM
- TGI (HOP-92 NSCLC): > 100 µM
- TGI (NCI-H460 lung): > 100 µM
- TGI (SNB-75 CNS): > 100 µM
- TGI (SK-MEL-28 melanoma): > 100 µM
- TGI (NCI-H522 lung): 96.5 µM
- TGI (RPMI-8226 leukemia): > 100 µM
- TGI (HT29 colon): > 100 µM
- TGI (SN12C renal): > 100 µM

Structure (SMILES): CCCCCCCCCCCCCCC(C)CCC(=O)O (stereo not given)
- TGI (M19-MEL melanoma): > 100 µM
- TGI (IGROV1 ovarian): > 100 µM
- TGI (NCI-H226 lung): > 100 µM
- TGI (OVCAR-3 ovarian): > 100 µM
- TGI (SF-539 CNS): > 100 µM
- TGI (OVCAR-4 ovarian): > 100 µM
- TGI (OVCAR-8 ovarian): > 100 µM
- TGI (HCT-116 colon): > 100 µM
- TGI (SW-620 colon): > 100 µM
- TGI (SF-268 CNS): > 100 µM
- TGI (A549 NSCLC): > 100 µM
- TGI (EKVX NSCLC): > 100 µM
- TGI (RXF 393 renal): > 100 µM
- TGI (DLD-1 colon): > 100 µM
- TGI (UACC-257 melanoma): > 100 µM
- TGI (COLO 205 colon): > 100 µM
- TGI (LOX IMVI melanoma): > 100 µM
- TGI (TK-10 renal): > 100 µM
- TGI (SK-MEL-2 melanoma): > 100 µM
- TGI (XF 498 CNS): > 100 µM
- TGI (OVCAR-5 ovarian): > 100 µM
- TGI (UACC-62 melanoma): > 100 µM
- TGI (CAKI-1 renal): > 100 µM
- TGI (HOP-62 NSCLC): > 100 µM
- TGI (SF-295 CNS): > 100 µM
- TGI (U251 CNS): > 100 µM
- TGI (786-0 renal): > 100 µM
- TGI (MALME-3M melanoma): > 100 µM
- TGI (HOP-18 NSCLC): > 100 µM
- TGI (A498 renal): > 100 µM
- TGI (SK-MEL-5 melanoma): > 100 µM
- TGI (NCI-H23 lung): > 100 µM
- TGI (KM12 colon): > 100 µM
- TGI (SNB-78 CNS): > 100 µM
- TGI (ACHN renal): > 100 µM
- TGI (SNB-19 CNS): > 100 µM
- TGI (HOP-92 NSCLC): > 100 µM
- TGI (NCI-H460 lung): > 100 µM
- TGI (SNB-75 CNS): > 100 µM
- TGI (SK-MEL-28 melanoma): > 100 µM
- TGI (HT29 colon): > 100 µM
- TGI (SN12C renal): > 100 µM
